ChEMBL document CHEMBL4507275, “Data for DCP probe BI-2545” (2021)

Experiments:
[1] = target: AP2-associated protein kinase 1 (Homo sapiens) (UniProt Q2M2I8); details: Compound concentration 1000.0 nM
[2] = tested on: Tyrosine-protein kinase ABL1 (Homo sapiens), P00519 [Y253F]; details: Compound concentration 1000.0 nM
[3] = target: Tyrosine-protein kinase ABL2 (Homo sapiens) (UniProt P42684); details: Compound concentration 1000.0 nM
[4] = target: Activin receptor type-2B (Homo sapiens) (UniProt Q13705); details: Compound concentration 1000.0 nM
Activin receptor type-2B (Homo sapiens), sequence (Q13705 whole entry): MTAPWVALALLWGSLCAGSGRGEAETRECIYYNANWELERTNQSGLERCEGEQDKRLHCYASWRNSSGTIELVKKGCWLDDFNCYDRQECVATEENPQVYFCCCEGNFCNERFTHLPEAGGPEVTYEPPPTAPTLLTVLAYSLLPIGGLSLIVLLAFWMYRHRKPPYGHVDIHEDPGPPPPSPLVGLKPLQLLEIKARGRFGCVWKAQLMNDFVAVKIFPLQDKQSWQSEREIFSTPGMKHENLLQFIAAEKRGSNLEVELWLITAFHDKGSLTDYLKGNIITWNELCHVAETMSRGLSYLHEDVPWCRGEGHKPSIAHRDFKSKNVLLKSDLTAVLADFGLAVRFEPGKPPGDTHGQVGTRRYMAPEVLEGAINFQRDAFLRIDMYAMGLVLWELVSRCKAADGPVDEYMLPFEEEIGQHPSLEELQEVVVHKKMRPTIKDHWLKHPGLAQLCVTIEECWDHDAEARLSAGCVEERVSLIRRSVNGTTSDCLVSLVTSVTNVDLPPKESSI

[5] = target: Aurora kinase A (Homo sapiens) (UniProt O14965); details: Compound concentration 1000.0 nM
Aurora kinase A (Homo sapiens), sequence (O14965 whole entry): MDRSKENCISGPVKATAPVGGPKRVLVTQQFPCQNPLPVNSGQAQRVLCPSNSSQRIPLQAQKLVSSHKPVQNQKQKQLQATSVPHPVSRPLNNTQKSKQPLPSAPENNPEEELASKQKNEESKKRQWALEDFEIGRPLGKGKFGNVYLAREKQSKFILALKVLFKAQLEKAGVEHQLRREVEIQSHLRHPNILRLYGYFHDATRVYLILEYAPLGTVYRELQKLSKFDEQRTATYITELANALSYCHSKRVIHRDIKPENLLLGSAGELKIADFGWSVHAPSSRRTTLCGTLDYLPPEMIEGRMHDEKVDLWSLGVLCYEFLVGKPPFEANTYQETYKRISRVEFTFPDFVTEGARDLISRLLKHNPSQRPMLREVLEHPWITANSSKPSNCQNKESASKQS

[6] = tested on: Serine/threonine-protein kinase B-raf (Homo sapiens), P15056 [V600E]; details: Compound concentration 1000.0 nM
Serine/threonine-protein kinase B-raf (Homo sapiens), P15056 [V600E], sequence (P15056 whole entry V600E): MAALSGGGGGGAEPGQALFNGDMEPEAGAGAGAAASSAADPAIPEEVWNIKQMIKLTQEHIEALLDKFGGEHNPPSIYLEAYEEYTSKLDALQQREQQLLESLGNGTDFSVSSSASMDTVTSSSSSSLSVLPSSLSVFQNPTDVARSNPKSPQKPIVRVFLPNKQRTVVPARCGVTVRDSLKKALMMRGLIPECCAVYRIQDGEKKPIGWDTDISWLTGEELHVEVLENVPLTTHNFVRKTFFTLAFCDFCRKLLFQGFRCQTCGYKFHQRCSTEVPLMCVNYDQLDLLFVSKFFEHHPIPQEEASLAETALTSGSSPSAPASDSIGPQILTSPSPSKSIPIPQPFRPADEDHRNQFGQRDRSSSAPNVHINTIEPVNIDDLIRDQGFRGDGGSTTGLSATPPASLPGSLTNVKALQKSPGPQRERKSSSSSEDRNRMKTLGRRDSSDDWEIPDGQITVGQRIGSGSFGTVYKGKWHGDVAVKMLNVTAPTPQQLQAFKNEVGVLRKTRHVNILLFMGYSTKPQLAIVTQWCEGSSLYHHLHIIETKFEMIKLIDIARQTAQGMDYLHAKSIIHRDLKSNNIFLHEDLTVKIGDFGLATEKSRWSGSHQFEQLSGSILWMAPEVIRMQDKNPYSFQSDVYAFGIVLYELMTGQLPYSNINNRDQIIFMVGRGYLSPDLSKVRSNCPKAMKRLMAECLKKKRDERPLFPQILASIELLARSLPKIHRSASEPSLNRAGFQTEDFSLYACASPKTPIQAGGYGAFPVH

[7] = target: Tyrosine-protein kinase BTK (Homo sapiens) (UniProt Q06187); details: Compound concentration 1000.0 nM
[8] = target: Calcium/calmodulin-dependent protein kinase type II subunit delta (Homo sapiens) (UniProt Q13557); details: Compound concentration 1000.0 nM
[9] = target: Calcium/calmodulin-dependent protein kinase kinase 1 (Homo sapiens) (UniProt Q8N5S9); details: Compound concentration 1000.0 nM
[10] = target: Cyclin-dependent kinase 3 (Homo sapiens) (UniProt Q00526); details: Compound concentration 1000.0 nM
[11] = target: Cyclin-dependent kinase-like 1 (Homo sapiens) (UniProt Q00532); details: Compound concentration 1000.0 nM
[12] = target: Dual specificity protein kinase CLK1 (Homo sapiens) (UniProt P49759); details: Compound concentration 1000.0 nM
[13] = target: Dual specificity protein kinase CLK3 (Homo sapiens) (UniProt P49761); details: Compound concentration 1000.0 nM
[14] = target: Ephrin type-B receptor 2 (Homo sapiens) (UniProt P29323); details: Compound concentration 1000.0 nM
[15] = target: Receptor tyrosine-protein kinase erbB-4 (Homo sapiens) (UniProt Q15303); details: Compound concentration 1000.0 nM
[16] = tested on: Receptor-type tyrosine-protein kinase FLT3 (Homo sapiens), P36888 [UNDEFINED MUTATION]; details: Compound concentration 1000.0 nM
[17] = tested on: Receptor-type tyrosine-protein kinase FLT3 (Homo sapiens), P36888 [K663Q]; details: Compound concentration 1000.0 nM
[18] = target: G protein-coupled receptor kinase 4 (Homo sapiens) (UniProt P32298); details: Compound concentration 1000.0 nM
[19] = target: Rhodopsin kinase GRK7 (Homo sapiens) (UniProt Q8WTQ7); details: Compound concentration 1000.0 nM
[20] = target: Serine/threonine-protein kinase ICK (Homo sapiens) (UniProt Q9UPZ9); details: Compound concentration 1000.0 nM
[21] = target: Insulin receptor (Homo sapiens) (UniProt P06213); details: Compound concentration 1000.0 nM
[22] = target: LIM domain kinase 1 (Homo sapiens) (UniProt P53667); details: Compound concentration 1000.0 nM
[23] = target: Serine/threonine-protein kinase 10 (Homo sapiens) (UniProt O94804); details: Compound concentration 1000.0 nM
[24] = target: Leucine-rich repeat serine/threonine-protein kinase 2 (Homo sapiens) (UniProt Q5S007); details: Compound concentration 1000.0 nM
[25] = target: MAP kinase-interacting serine/threonine-protein kinase 2 (Homo sapiens) (UniProt Q9HBH9); details: Compound concentration 1000.0 nM
MAP kinase-interacting serine/threonine-protein kinase 2 (Homo sapiens), sequence (Q9HBH9 whole entry, looked up): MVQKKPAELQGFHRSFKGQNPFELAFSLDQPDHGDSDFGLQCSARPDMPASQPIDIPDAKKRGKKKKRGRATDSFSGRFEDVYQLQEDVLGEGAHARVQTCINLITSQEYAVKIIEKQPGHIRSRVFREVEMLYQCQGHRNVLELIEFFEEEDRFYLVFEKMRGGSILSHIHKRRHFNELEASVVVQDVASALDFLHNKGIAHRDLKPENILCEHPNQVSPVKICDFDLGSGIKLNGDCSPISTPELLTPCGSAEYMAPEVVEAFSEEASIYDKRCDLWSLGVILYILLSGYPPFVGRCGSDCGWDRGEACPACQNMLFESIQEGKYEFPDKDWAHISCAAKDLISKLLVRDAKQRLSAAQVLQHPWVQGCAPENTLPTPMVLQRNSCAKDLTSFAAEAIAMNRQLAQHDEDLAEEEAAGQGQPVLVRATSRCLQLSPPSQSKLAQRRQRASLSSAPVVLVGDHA

[26] = target: Myosin light chain kinase (Homo sapiens) (UniProt Q32MK0); details: Compound concentration 1000.0 nM
[27] = target: Serine/threonine-protein kinase NLK (Homo sapiens) (UniProt Q9UBE8); details: Compound concentration 1000.0 nM
[28] = target: Serine/threonine-protein kinase OSR1 (Homo sapiens) (UniProt O95747); details: Compound concentration 1000.0 nM
[29] = target: Cyclin-dependent kinase 14 (Homo sapiens) (UniProt O94921); details: Compound concentration 1000.0 nM
[30] = tested on: Phosphatidylinositol 4,5-bisphosphate 3-kinase catalytic subunit alpha isoform (Homo sapiens), P42336 [E542K]; details: Compound concentration 1000.0 nM
[31] = target: Serine/threonine-protein kinase pim-1 (Homo sapiens) (UniProt P11309); details: Compound concentration 1000.0 nM
[32] = target: Phosphatidylinositol 4-phosphate 5-kinase type-1 gamma (Homo sapiens) (UniProt O60331); details: Compound concentration 1000.0 nM
[33] = target: Membrane-associated tyrosine- and threonine-specific cdc2-inhibitory kinase (Homo sapiens) (UniProt Q99640); details: Compound concentration 1000.0 nM
[34] = target: Serine/threonine-protein kinase PLK4 (Homo sapiens) (UniProt O00444); details: Compound concentration 1000.0 nM
[35] = target: Proto-oncogene tyrosine-protein kinase receptor Ret (Homo sapiens) (UniProt P07949); details: Compound concentration 1000.0 nM
Proto-oncogene tyrosine-protein kinase receptor Ret (Homo sapiens), sequence (P07949 whole entry): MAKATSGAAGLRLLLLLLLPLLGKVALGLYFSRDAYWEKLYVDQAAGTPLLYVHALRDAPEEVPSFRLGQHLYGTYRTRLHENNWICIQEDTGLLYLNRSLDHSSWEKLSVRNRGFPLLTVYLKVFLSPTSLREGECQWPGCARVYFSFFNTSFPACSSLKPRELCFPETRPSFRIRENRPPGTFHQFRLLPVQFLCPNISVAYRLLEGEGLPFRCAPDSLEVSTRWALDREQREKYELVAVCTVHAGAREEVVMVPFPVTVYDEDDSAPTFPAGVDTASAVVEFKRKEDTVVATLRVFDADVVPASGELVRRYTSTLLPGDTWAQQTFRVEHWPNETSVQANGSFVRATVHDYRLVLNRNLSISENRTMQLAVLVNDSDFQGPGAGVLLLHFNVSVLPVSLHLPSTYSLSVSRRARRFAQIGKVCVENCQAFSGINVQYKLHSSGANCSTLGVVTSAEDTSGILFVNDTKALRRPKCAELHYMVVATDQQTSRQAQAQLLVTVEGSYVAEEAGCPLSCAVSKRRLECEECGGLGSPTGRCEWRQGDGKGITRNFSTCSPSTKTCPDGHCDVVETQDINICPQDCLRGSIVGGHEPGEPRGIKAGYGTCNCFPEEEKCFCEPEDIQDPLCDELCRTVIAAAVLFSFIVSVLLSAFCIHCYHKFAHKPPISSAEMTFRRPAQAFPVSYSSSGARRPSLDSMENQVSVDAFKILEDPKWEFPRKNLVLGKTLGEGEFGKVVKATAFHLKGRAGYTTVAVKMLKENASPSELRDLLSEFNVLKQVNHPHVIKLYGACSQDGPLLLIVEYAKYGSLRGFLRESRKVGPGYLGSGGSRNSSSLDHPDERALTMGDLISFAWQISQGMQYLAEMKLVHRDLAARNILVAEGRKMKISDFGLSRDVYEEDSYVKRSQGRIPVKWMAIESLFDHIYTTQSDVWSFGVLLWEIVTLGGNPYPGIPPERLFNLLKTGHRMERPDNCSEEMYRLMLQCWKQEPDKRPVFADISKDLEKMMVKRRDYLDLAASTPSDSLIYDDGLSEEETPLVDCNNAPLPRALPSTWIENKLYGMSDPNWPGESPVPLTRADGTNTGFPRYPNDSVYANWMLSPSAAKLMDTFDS

[36] = tested on: Proto-oncogene tyrosine-protein kinase receptor Ret (Homo sapiens), P07949 [V804M]; details: Compound concentration 1000.0 nM
Proto-oncogene tyrosine-protein kinase receptor Ret (Homo sapiens), P07949 [V804M], sequence (P07949 whole entry V804M): as the sequence (P07949 whole entry) above, with V804M counted along it

[37] = target: Serine/threonine-protein kinase RIO2 (Homo sapiens) (UniProt Q9BVS4); details: Compound concentration 1000.0 nM
[38] = target: Serine/threonine-protein kinase 35 (Homo sapiens) (UniProt Q8TDR2); details: Compound concentration 1000.0 nM
[39] = target: Tyrosine-protein kinase SYK (Homo sapiens) (UniProt P43405); details: Compound concentration 1000.0 nM
[40] = target: Serine/threonine-protein kinase WNK2 (Homo sapiens) (UniProt Q9Y3S1); details: Compound concentration 1000.0 nM
[41] = target: 5-hydroxytryptamine receptor 7 (Homo sapiens) (UniProt P34969); details: Compound concentration 10.0 uM
[42] = target: GABA-A receptor; anion channel (Rattus norvegicus) (UniProt O09028+P15431+P18506+P18508+P19969+P20236+P23574+P23576+P28471+P28473+P30191+P62813+P63079+P63138+Q91ZM7+Q9ES14); details: Compound concentration 10.0 uM
[43] = target: Histamine H1 receptor (Homo sapiens) (UniProt P35367); details: Compound concentration 10.0 uM
[44] = target: Alpha-1D adrenergic receptor (Homo sapiens) (UniProt P25100); details: Compound concentration 10.0 uM
Alpha-1D adrenergic receptor (Homo sapiens), sequence (P25100 whole entry): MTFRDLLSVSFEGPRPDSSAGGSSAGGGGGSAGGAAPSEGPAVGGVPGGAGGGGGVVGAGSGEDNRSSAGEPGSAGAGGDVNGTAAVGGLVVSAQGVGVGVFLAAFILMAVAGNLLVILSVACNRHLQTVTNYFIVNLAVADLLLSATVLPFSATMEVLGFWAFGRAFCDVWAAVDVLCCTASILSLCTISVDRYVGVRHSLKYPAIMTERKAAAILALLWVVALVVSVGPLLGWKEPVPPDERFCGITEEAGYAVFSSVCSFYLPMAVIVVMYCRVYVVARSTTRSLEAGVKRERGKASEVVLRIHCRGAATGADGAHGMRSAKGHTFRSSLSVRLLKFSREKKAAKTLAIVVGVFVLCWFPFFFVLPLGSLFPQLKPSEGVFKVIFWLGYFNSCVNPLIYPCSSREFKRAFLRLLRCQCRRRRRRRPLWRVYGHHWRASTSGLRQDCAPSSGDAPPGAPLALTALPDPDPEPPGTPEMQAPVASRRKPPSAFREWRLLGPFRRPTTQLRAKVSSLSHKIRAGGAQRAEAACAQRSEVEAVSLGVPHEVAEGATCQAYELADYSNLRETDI

Tyrosine-protein kinase ABL2 (Homo sapiens), sequence (P42684 whole entry): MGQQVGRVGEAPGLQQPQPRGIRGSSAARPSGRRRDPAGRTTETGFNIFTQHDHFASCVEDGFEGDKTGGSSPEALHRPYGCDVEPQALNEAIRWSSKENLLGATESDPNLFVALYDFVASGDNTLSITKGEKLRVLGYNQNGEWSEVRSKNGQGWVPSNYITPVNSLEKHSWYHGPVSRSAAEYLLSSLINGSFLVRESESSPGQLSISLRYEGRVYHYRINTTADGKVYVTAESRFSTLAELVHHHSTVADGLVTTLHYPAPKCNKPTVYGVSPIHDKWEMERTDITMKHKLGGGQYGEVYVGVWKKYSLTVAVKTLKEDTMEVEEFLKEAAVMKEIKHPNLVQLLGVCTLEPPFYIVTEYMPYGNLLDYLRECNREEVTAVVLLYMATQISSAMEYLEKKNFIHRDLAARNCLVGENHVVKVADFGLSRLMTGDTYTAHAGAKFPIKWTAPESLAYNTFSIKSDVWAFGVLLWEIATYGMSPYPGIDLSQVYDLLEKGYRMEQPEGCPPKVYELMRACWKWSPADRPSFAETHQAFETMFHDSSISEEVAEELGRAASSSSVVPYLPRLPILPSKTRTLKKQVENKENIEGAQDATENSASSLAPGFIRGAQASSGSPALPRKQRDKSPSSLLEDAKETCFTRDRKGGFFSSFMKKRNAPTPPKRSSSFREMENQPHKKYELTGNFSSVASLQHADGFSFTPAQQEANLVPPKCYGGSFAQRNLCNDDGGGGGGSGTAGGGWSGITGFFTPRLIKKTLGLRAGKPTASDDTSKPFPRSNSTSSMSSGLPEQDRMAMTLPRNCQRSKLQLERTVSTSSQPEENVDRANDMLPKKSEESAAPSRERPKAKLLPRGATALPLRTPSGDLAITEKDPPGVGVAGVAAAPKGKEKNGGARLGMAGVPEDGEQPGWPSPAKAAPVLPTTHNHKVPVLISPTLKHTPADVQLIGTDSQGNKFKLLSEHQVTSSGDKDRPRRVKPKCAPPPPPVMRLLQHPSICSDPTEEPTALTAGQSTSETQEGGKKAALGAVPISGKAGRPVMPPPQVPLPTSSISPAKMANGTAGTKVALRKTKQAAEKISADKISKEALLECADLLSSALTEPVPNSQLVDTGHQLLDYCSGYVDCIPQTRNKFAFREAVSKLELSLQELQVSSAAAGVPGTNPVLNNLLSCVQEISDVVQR

O=C(NC[C@@H]1[C@H]2CN(C(=O)OCc3cc(C(F)(F)F)cc(C(F)(F)F)c3)C[C@@H]12)c1ccc2[nH]nnc2c1 [BI 2545]
residual activity [1]: 96% | residual activity [2]: 95% | residual activity [3]: 98% | residual activity [4]: 100% | residual activity [5]: 93% | residual activity [6]: 100% | residual activity [7]: 100% | residual activity [8]: 100% | residual activity [9]: 91% | residual activity [10]: 94% | residual activity [11]: 84% | residual activity [12]: 87% | residual activity [13]: 78% | residual activity [14]: 100% | residual activity [15]: 100% | residual activity [16]: 83% | residual activity [17]: 98% | residual activity [18]: 100% | residual activity [19]: 100% | residual activity [20]: 100% | residual activity [21]: 83% | residual activity [22]: 100% | residual activity [23]: 100% | residual activity [24]: 91% | residual activity [25]: 90% | residual activity [26]: 98% | residual activity [27]: 100% | residual activity [28]: 85% | residual activity [29]: 96% | residual activity [30]: 75% | residual activity [31]: 98% | residual activity [32]: 98% | residual activity [33]: 100% | residual activity [34]: 82% | residual activity [35]: 100% | residual activity [36]: 88% | residual activity [37]: 94% | residual activity [38]: 100% | residual activity [39]: 100% | residual activity [40]: 84% | inhibition [41]: 19% | inhibition [42]: 1.13% | inhibition [43]: 12.8% | inhibition [44]: -1.41%

Cc1nccc(COC(=O)N2C[C@@H]3[C@@H](CNC(=O)c4ccc5[nH]nnc5c4)[C@@H]3C2)n1 [BI 3017]
residual activity [1]: 100% | residual activity [2]: 93% | residual activity [3]: 90% | residual activity [4]: 91% | residual activity [5]: 91% | residual activity [6]: 100% | residual activity [7]: 99% | residual activity [8]: 100% | residual activity [9]: 100% | residual activity [10]: 97% | residual activity [11]: 81% | residual activity [12]: 100% | residual activity [13]: 90% | residual activity [14]: 100% | residual activity [15]: 100% | residual activity [16]: 100% | residual activity [17]: 100% | residual activity [18]: 100% | residual activity [19]: 88% | residual activity [20]: 100% | residual activity [21]: 84% | residual activity [22]: 100% | residual activity [23]: 100% | residual activity [24]: 100% | residual activity [25]: 90% | residual activity [26]: 97% | residual activity [27]: 41% | residual activity [28]: 100% | residual activity [29]: 100% | residual activity [30]: 86% | residual activity [31]: 96% | residual activity [32]: 93% | residual activity [33]: 100% | residual activity [34]: 83% | residual activity [35]: 93% | residual activity [36]: 100% | residual activity [37]: 97% | residual activity [38]: 83% | residual activity [39]: 100% | residual activity [40]: 79% | inhibition [41]: 9.56% | inhibition [42]: 9.85% | inhibition [43]: 18.1% | inhibition [44]: -6.43%
